Literature values in patent US10596159B2, “Method and composition for treating cachexia and eating disorders” (India Globalization Capital, Inc., priority 2015, dated 2020).
Read-outs that look alike come from different tables or passages of the source.

Tests used:
[1] = HIV-positive and cancer patients; Gorter, 1999
[2] = advanced cancer patients, Ronga, et al. 2014

Structure (SMILES)	appetite [1]	body weight [1]	appetite stimulation (Suzuki, et al. 2013)	effect on weight loss (Suzuki, et al. 2013)	appetite stimulation [2]	effect on progressive weight loss [2]
CCCCCc1cc(O)c2c(c1)OC(C)(C)[C@@H]1CCC(C)=C[C@@H]21 [THC, Delta-9-tetrahydrocannabinol]	stimulation of appetite	increase of body weight	–	–	–	–
CN1CCC(=C2c3ccccc3C=Cc3ccccc32)CC1.Cl [cyproheptadine, 4-(5H-dibenzo [a,d]cyclohepten-5-ylidene)-1-methylpiperidine hydrochloride]	–	–	effective in stimulating appetite	only slight effects on weight loss	only mildly stimulated appetite	did not prevent progressive weight loss
